# Reference: patent US11793822B2, “Uses of Pulsatilla Chinensis extract in preparing drug for treating viral and/or bacterial diseases” (SICHUAN INLU WEITE PHARMACEUTICAL TECHNOLOGY CO., LTD., priority 2018, dated 2023)
# Key:
# [1] = tested on: persistent clinical mastitis; test: Treatment of persistent clinical mastitis (Test Example 3); assay type: in vivo, cows; conditions: 60 mL intramuscular injection once a day, after 3 administrations
# Description: Pulsatilla Saponin B4 injection prepared by the preparation method of Example 3 at a concentration of 50 mg/mL;
# The test selected 8 existing cows suffering from clinical mastitis in the dairy farm of Shijiazhuang Tianquan Dairy Cows Co., Ltd. These 8 cows have been treated for about a month but have not been cured (2 of them were close to dry, i.e., almost no milk was produced). These 8 cows have been treated by farm veterinarians, the treatment drugs and methods include udder infusing Cefquinome Sulfate Intramammary Infusion, intravenous injecting cephalosporins injection, and gavage with Gongying San ( ? ), etc.
# To study the effect of Pulsatilla Saponin B4 injection on persistent clinical mastitis and the effect of Pulsatilla Saponin B4 injection on latent mastitis.
# In the test, the Pulsatilla Saponin B4 injection prepared by the preparation method of Example 3 was used to treat 6 cows with persistent clinical mastitis and 2 cows with persistent clinical mastitis and close to dry. No matter how many udder areas were inflamed, intramuscular injection (60 mL) was taken once a day.
# [2] = set-up: species or system dairy cows; conditions: in vivo
# Excerpt: In addition, during the treatment of dairy cow mastitis, randomly selected the tested Pulsatilla Saponin B4 injection and entrusted the Sichuan Provincial Veterinary Drug Inspection Institute to conduct more than 200 antibiotic tests, and no antibiotic component was detected. […] Pulsatilla Saponin B4 has little effect on the immunoglobulin and inflammatory factors in the cow milk, thus can ensure the stability of the milk composition. In addition, since there is no residue, it will not affect the quality of fresh milk in dairy farms.
compound,measurement,setting,value
C=C(C)C1CC[C@]2(C(=O)O[C@@H]3O[C@H](CO[C@@H]4O[C@H](CO)[C@@H](O[C@@H]5O[C@@H](C)[C@H](O)[C@@H](O)[C@H]5O)[C@H](O)[C@H]4O)[C@@H](O)[C@H](O)C3O)CC[C@]3(C)[C@H](CC[C@@H]4[C@@]5(C)CC[C@H](O[C@@H]6OC[C@H](O)[C@H](O)[C@H]6O[C@@H]6O[C@@H](C)[C@H](O)[C@@H](O)[C@H]6O)C(C)(CO)[C@@H]5CC[C@]43C)[C@H]12 (stereo partly drawn) [Pulsatilla Saponin B4],Treatment result of cows with persistent clinical mastitis close to dry,[1]; 2 cows close to dry,not effective
same,Treatment result of cows with persistent clinical mastitis,[1]; 6 cows treated about a month but not cured,"four cows were cured, one cow improved significantly, and one cow showed no significant effect"
same,Effect on the immunoglobulin and inflammatory factors in the cow milk,[2],little effect
